Assay results taken from US20230270877A1, “Combination Therapy” (Seagen Inc., priority 2020, published 2023).
Square brackets hold non-standard residues; d marks the D form. Peptide text beside a SMILES is read from it. * marks the point of attachment. Dolaproine = CO[C@@H]([C@@H]1CCCN1)[C@@H](C)C(=O)O; Dil = CC[C@H](C)[C@H](NC)[C@@H](CC(=O)O)OC; X1 = C[C@@H](N*)[C@@H](O)c1ccccc1; NMeV = CN[C@H](C(=O)O)C(C)C

What was measured:
A20 lymphoma cells = test: Immunization with killed CD30-expressing A20 cells and A20 challenge (Example 24); assay type: in vivo; conditions: mice immunized 2 times with cells killed by the agent; compared to flash freezing; FIG. 24
Protocol: A20 cells expressing human CD30 were treated with CD30-Auristatin ADC (BV; SGN-35) or MMAE for 18 hrs. Alternatively, one aliquot of cells was f1ash frozen. Ficoll centrifugation of treated samples was performed to remove live cells. All samples were analyzed for apoptosis and viability by flow cytometry using annexin V/7AAD. Dying and dead cells were washed, resuspended in PBS, and intraperitoneally injected into mice. The mice were immunized 2 times, 7 days apart. Immunized mice rested for 7 additional days, and then were challenged with A20 lymphoma cells, and tumor growth or rejection was monitored over time.

CD40 = CD40 (Homo sapiens, UniProt P25942); conditions: cited from earlier work
Chain of CD40 (P25942 21-277): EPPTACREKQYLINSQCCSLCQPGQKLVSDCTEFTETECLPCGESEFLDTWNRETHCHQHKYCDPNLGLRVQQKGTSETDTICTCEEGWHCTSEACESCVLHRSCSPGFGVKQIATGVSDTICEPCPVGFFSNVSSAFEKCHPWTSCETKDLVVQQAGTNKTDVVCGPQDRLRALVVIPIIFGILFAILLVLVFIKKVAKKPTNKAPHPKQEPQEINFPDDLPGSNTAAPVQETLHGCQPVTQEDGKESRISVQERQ

CD30+CD8 T cells = test: Proliferation of activated CD30+CD8 T cells treated with CD30 directed vc-MMAE; assay type: cell-based, human; conditions: anti-CD3-CD28 beads + 10 ng/mL IL-2, 4 days; vs isotype control; FIG. 2
Protocol: Human primary CD8 T cells were labeled with CSFE and induced to undergo proliferation with anti-CD3-CD28 beads (1 bead per 4 T cells)+10 ng/mL IL-2 for 4 days. […] CD30+CD8 T cells were treated with either CD30 directed vc-MMAE (brentuximab vedotin; BV; SGN-35) or an isotype control. Cells were stained with LIVE/DEAD Fixable Dead Cell Stain (ThermoFisher) and live cells were counted via flow cytometry.

Farage cells = assay type: in vivo; conditions: single agent, SEA-CD70 3 mg/kg or SGN-35 1 mg/kg
[1] = test system: acute myeloid leukemia (AML); conditions: administered alone; cited from earlier work

CC[C@H](C)[C@@H]([C@@H](CC(=O)N1CCC[C@H]1[C@H](OC)[C@@H](C)C(=O)N[C@H](C)[C@@H](O)c1ccccc1)OC)N(C)C(=O)[C@@H](NC(=O)[C@@H](NC)C(C)C)C(C)C [MMAE, N-methylvaline-valine-dolaisoleuine-dolaproine-norephedrine] (H-[NMeV]V[Dil][Dolaproine]-X1)
immune responses rejecting implanted A20 cells (A20 lymphoma cells): stronger immune responses

Dacetuzumab: fucosylated humanized S2C6, agonistic CD40 monoclonal antibody
clinical activity (CD40; phase 1 study in NHL and phase 2 study in DLBCL): some clinical activity

CP-870,893: a humanized IgG2 agonist antibody to CD40
activity in solid tumor indications (CD40; combined with paclitaxel or carboplatin or gemcitabine): encouraging activity

SGN-35: CD30-targeting ADC containing MMAE conjugated to the monoclonal antibody cAC10 [reference compound]
cell proliferation of primary human CD30+CD8 T cells (CD30+CD8 T cells): not significantly altered | day at which tumors reached an average 5 fold increase of original size (Farage cells; day post implant, untreated 28.5): 46 days | days post treatment at which tumors reached an average 5 fold increase (Farage cells; untreated 9.5): 27 days post treatment | immune responses rejecting implanted A20 cells (A20 lymphoma cells): stronger immune responses

CT-011: anti-PD-1 antibody, a humanized antibody
response in treating acute myeloid leukemia (AML) at relapse [1]: failed to show response
